Reference: patent publication US7659299B2, “Compounds inhibiting the binding of sap for treating osteoarthritis” (Pentraxin Therapeutics Limited, priority 2003, dated 2010)
pKd: −log10 of the molar value. Where “and” joins values, the source holds several entries; their conditions need not be identical. Identical values can stand only once.

How the values were obtained:
SAP [1] = biological target: T1, SAP (Homo sapiens, UniProt P02743); assay: Inhibition of binding of 125I radiolabelled SAP to native long chromatin immobilized in microtitre plates; parameters: 5 μl of radiolabelled SAP in TN; from tissue; conditions: for Inhibition of binding of SAP to chromatin, in words: Table 2; for inhibition at 0.2 µM: compound 200 nM; for inhibition at 0.2 µM / inhibition at 2 µM / inhibition at 20 µM / inhibition at 200 µM / inhibition at 2000 µM: read-out: Percent inhibition of binding of radiolabelled SAP to immobilized native long chromatin; for inhibition at 2 µM: compound 2 μM; for inhibition at 20 µM: compound 20 μM; for inhibition at 200 µM: compound 200 μM
SAP [2] = biological target: T1, SAP; assay: Inhibition of binding of 125I radiolabelled SAP to Neisseria meningitidis immobilized in microtitre plates; parameters: 5 μl of radiolabelled SAP in TN; from tissue; conditions: for inhibition at 0.2 µM: compound 200 nM; for inhibition at 0.2 µM / inhibition at 2 µM / inhibition at 20 µM / inhibition at 200 µM / inhibition at 2000 µM: read-out: Percent inhibition of binding of radiolabelled SAP to immobilized Neisseria meningitidis; for inhibition at 2 µM: compound 2 μM; for inhibition at 20 µM: compound 20 μM; for inhibition at 200 µM: compound 200 μM; for inhibition at 2000 µM: compound 2 mM; for Inhibition of binding of SAP to meningococci, in words: summary of Table 1
Protocol: A suspension of heat killed Neisseria meningitidis at 1×10^8 organisms per ml in PBS was dispensed to polystyrene microtitre plates at 50 μl volumes per well, and left overnight at 4° C. All wells were then washed three times with 200 μl volumes of PBS containing 0.05% v/v Tween 20, prior to equilibration for 2 min with 0.01M Tris buffered 0.14M NaCl/0.002M CaCl2 at pH 8.0 (TC buffer), containing 4% w/v BSA and 0.05%/v Tween 20 (TCBT buffer). The wells were then emptied before adding to each one the following reagents. […] For background, non-specific, non calcium dependent, binding in the presence of EDTA: 5 μl radiolabelled SAP in TN and 45 μl 0.01M Tris buffered 0.14M NaCl at pH 8.0 containing 11.1 mM EDTA, 4.4% w/v BSA and 0.06% w/v Tween 20 (TEBT buffer) to provide final concentrations of EDTA, 10 mM; BSA, 4%; Tween 20, 0.05%. […] All wells were then incubated at room temperature for 2 h before being washed three times with 200 μl volumes of TCBT, allowed to dry for 1 h at room temperature, and bound radiolabelled SAP was then counted.
The capacity of the compounds tested to inhibit binding of SAP to meningococci is expressed as the percentage by which SAP binding was reduced compared to binding in the absence of any inhibitor (Table 1).

SAP [3] = biological target: T1, SAP; assay: Inhibition of binding of 125I radiolabelled SAP to influenza virus immobilized in microtitre plates; parameters: 5 μl of radiolabelled SAP in TN; from tissue; conditions: for inhibition at 0.2 µM: compound 200 nM; for inhibition at 0.2 µM / inhibition at 2 µM / inhibition at 20 µM / inhibition at 200 µM / inhibition at 2000 µM: read-out: Percent inhibition of binding of radiolabelled SAP to immobilized influenza virus; for inhibition at 2 µM: compound 2 μM; for inhibition at 20 µM: compound 20 μM; for inhibition at 200 µM: compound 200 μM; for inhibition at 2000 µM: compound 2 mM; for Inhibition of binding of SAP to immobilised influenza virus, in words: summary of Table 3
Protocol: A concentrated suspension of purified influenza virus A/Shanghai/24/90 at 10 mg protein per ml in PBS was diluted 1:50 in PBS and then dispensed to polystyrene microtitre plates at 50 μl volumes per well, and left overnight at 4° C. All wells were then emptied before blocking by addition to each well of 200 μl of 2% w/v BSA in PBS and incubation at room temperature for 1 h. All wells were then washed three times with 200 μl volumes of PBS containing 0.05% v/v Tween 20, prior to equilibration for 2 min with 0.01M Tris buffered 0.14M NaCl/0.002M CaCl2 at pH 8.0 (TC buffer), containing 4% w/v BSA and 0.05% v/v Tween 20 (TCBT buffer). The wells were then emptied before adding to each one the following reagents. […] For background, non-specific, non calcium dependent, binding in the presence of EDTA: 5 μl radiolabelled SAP in TN and 45 μl 0.01M Tris buffered 0.14M NaCl at pH 8.0 containing 11.1 mM EDTA, 4.4% w/v BSA and 0.06% w/v Tween 20 (TEBT buffer) to provide final concentrations of EDTA, 10 mM; BSA, 4%; Tween 20, 0.05%. […] All wells were then incubated at room temperature for 2 h before being washed three times with 200 μl volumes of TCBT, allowed to dry for 1 h at room temperature, and bound radiolabelled SAP was then counted. The compounds tested in the experiment shown here were the same as those specified in Example B above.
The capacity of the compounds tested to inhibit binding of SAP to the immobilised influenza virus is expressed as the percentage by which SAP binding was reduced compared to binding in the absence of any inhibitor (Table 3).

SAP [4] = biological target: T1, SAP; assay: Isothermal calorimetry: dissociation constants between SAP and compounds; type: binding; conditions: for pKd: replicate measurements, read-out: Kd in micromoles per liter (replicate measurements)
Source text: Surface plasmon resonance (SPR) is a low throughput but powerfully informative method to identify compounds that are bound by, or themselves bind to SAP, either in a calcium dependent fashion or independently of calcium, for the purposes of the present invention. For example, low molecular weight compounds that inhibit binding of SAP to its macromolecular ligands, including target ligands relevant to the present invention, can be detected by their effect on the signal generated by fluid phase SAP binding to ligand immobilised on the solid phase (Example A). Furthermore, when SAP itself is immobilised on the solid phase in an SPR instrument, the interaction with it of test molecules provided in the fluid phase generates a signal that can be detected and quantified. Purified SAP immobilized within an SPR instrument gives a quantifiable signal when it is exposed to another molecule that forms a complex with the SAP, and this is distinct from the absence of such a signal if no complex is formed. […] Another low throughput but powerful direct method is isothermal calorimetry that measures the heat of interaction in solution between SAP and test compounds according to the present invention. The binding affinity can be measured precisely as a guide to potential efficacy. Typical results by this method for the dissociation constants, Kd, between SAP and various compounds are as follows: […]

T1 sequence (P02743 20-223): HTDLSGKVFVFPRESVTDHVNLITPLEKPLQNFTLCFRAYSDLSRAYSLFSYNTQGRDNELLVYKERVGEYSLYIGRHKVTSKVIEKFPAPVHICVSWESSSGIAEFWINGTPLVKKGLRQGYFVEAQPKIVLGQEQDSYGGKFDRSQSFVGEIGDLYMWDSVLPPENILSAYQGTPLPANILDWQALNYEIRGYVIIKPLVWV

NCCOP(=O)(O)O [Phosphoethanolamine, reference compound]
Inhibition of binding of SAP to chromatin, in words (SAP [1]): inhibition at high concentration, but only modest effects when diluted | inhibition at 0.2 µM (SAP [1]): 3% | inhibition at 2 µM (SAP [1]): 9% | inhibition at 20 µM (SAP [1]): 36% | inhibition at 200 µM (SAP [1]): 59% | inhibition at 2000 µM (SAP [1]; compound 2 mM): 94% | inhibition at 0.2 µM (SAP [2]): 7% | inhibition at 2 µM (SAP [2]): 18% | inhibition at 20 µM (SAP [2]): 32% | inhibition at 200 µM (SAP [2]): 41% | inhibition at 2000 µM (SAP [2]): 95% | Inhibition of binding of SAP to meningococci, in words (SAP [2]): inhibition at high concentration, but only modest effects when diluted | inhibition at 0.2 µM (SAP [3]): 1% | inhibition at 2 µM (SAP [3]): 8% | inhibition at 20 µM (SAP [3]): 42% | inhibition at 200 µM (SAP [3]): 51% | inhibition at 2000 µM (SAP [3]): 69% | Inhibition of binding of SAP to immobilised influenza virus, in words (SAP [3]): inhibition at high concentration, but only modest effects when diluted | pKd (SAP [4]): 4.44 and 4.57 and 4.32

C[N+](C)(C)CCOP(=O)([O-])O [Phosphocholine, reference compound]
Inhibition of binding of SAP to chromatin, in words (SAP [1]): virtually no effect | inhibition at 0.2 µM (SAP [1]): 2% | inhibition at 2 µM (SAP [1]): 0% | inhibition at 20 µM (SAP [1]): 0% | inhibition at 200 µM (SAP [1]): 3% | inhibition at 2000 µM (SAP [1]): 19% | inhibition at 20 µM (SAP [2]): 4% | inhibition at 2000 µM (SAP [2]): 24% | Inhibition of binding of SAP to meningococci, in words (SAP [2]): virtually no effect | inhibition at 20 µM (SAP [3]): 5% | inhibition at 200 µM (SAP [3]): 5% | Inhibition of binding of SAP to immobilised influenza virus, in words (SAP [3]): virtually no effect | Kd in micromoles per liter (replicate measurements) (SAP [4]): No binding

O=C(O)[C@H]1CCCN1C(=O)COc1ccc(OCC(=O)N2CCC[C@@H]2C(=O)O)cc1 [Ro-64-2856, (R)-1-[[4-[2-[(R)-2-Carboxy-pyrrolidin-1-yl]-2-oxo-ethoxy]-phenoxy]-acetyl]-pyrrolidine-2-carboxylic acid]
inhibition at 0.2 µM (SAP [1]): 1% | inhibition at 2 µM (SAP [1]): 36% | inhibition at 20 µM (SAP [1]): 56% | inhibition at 200 µM (SAP [1]): 75% | inhibition at 2000 µM (SAP [1]; compound 2 mM): 91% | inhibition at 0.2 µM (SAP [2]): 0% | inhibition at 2 µM (SAP [2]): 65% | inhibition at 20 µM (SAP [2]): 74% | inhibition at 200 µM (SAP [2]): 65% | inhibition at 2000 µM (SAP [2]): 100% | inhibition at 0.2 µM (SAP [3]): 3% | inhibition at 2 µM (SAP [3]): 77% | inhibition at 20 µM (SAP [3]): 82% | inhibition at 200 µM (SAP [3]): 84% | inhibition at 2000 µM (SAP [3]): 87% | pKd (SAP [4]): 7.72 and 7.70

CC(=O)N1CCC[C@@H]1C(=O)O [N-acetyl-D-proline]
pKd (SAP [4]): 4.80 and 4.64 and 4.77

O=C(O)[C@H]1CCCN1C(=O)[C@H]1CC[C@@H](C(=O)N2CCC[C@@H]2C(=O)O)CC1 [Ro-64-2600, (R)-1-[cis-4-[(R)-2-Carboxy-pyrrolidine-1-carbonyl]-cyclohexanecarbonyl]-pyrrolidine-2-carboxylic acid]
inhibition at 0.2 µM (SAP [1]): 1% | inhibition at 2 µM (SAP [1]): 35% | inhibition at 20 µM (SAP [1]): 67% | inhibition at 200 µM (SAP [1]): 94% | inhibition at 2000 µM (SAP [1]; compound 2 mM): 100% | inhibition at 0.2 µM (SAP [2]): 31% | inhibition at 2 µM (SAP [2]): 73% | inhibition at 20 µM (SAP [2]): 93% | inhibition at 0.2 µM (SAP [3]): 0% | inhibition at 2 µM (SAP [3]): 76% | inhibition at 20 µM (SAP [3]): 83% | inhibition at 200 µM (SAP [3]): 89% | inhibition at 2000 µM (SAP [3]): 92%
